Data: patent US9802901B2, “Antibacterial 2H-indazole derivatives” (priority 2013, dated 2017)
Values after ≈ are worked out from the molar mass of the structure shown. Like-named read-outs stand apart in the source and are kept apart here.

Key:
wild-type E. coli A-1261 = experiment: MIC against wild-type E. coli A-1261 with or without alkaline phosphatase or esterase; format: cell-based; settings: Escherichia coli
Protocol: Minimal Inhibitory Concentrations (MICs; mg/L) were determined in cation-adjusted Mueller-Hinton Broth by a microdilution method following the description given in “Methods for Dilution Antimicrobial Susceptibility Tests for Bacteria that Grow Aerobically”, Approved standard, 7th ed., Clinical and Laboratory Standards Institute (CLSI) Document M7-A7, Wayne, Pa., USA (2006).
The compounds of Examples 62 and 63 were tested against wild-type E. coli A-1261 in the absence of alkaline phosphatase or esterase, in the presence of an alkaline phosphatase and in the presence of an esterase. The corresponding antibacterial test results are given in Table 2 hereafter (MICs in mg/L).

K. pneumoniae A-651 = experiment: Bacterial growth minimal inhibitory concentration (broth microdilution, CLSI M7-A7); format: cell-based, Klebsiella pneumoniae; settings: cation-adjusted Mueller-Hinton Broth, microdilution, multiply-resistant (quinolone-resistant) strain; for MIC: Klebsiella pneumoniae, A651, read-out: MIC for K. Pneumoniae A-651
Summary of the method: (§1)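 Broth microdilution in cation-adjusted Mueller-Hinton Broth per CLSI M7-A7; MICs reported in mg/L. K. pneumoniae A-651 and A. baumannii T6474 are multiply resistant, quinolone-resistant strains; E. coli ATCC25922 and P. aeruginosa ATCC27853 are quinolone-sensitive.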

[1] = tested on: Acinetobacter baumannii T6474; experiment: as above; format: cell-based; settings: cation-adjusted Mueller-Hinton Broth, microdilution, multiply-resistant (quinolone-resistant) strain; for MIC: Acinetobacter baumannii, T6474, read-out: MIC for A. Baumannii T6474
Summary of the method: as §1

P. aeruginosa ATCC27853 = experiment: as above; format: cell-based, Pseudomonas aeruginosa; settings: cation-adjusted Mueller-Hinton Broth, microdilution, quinolone-sensitive strain; for MIC: Pseudomonas aeruginosa, ATCC27853, read-out: MIC for P. aeruginosa ATCC27853
Summary of the method: as §1

E. coli ATCC25922 = experiment: as above; format: cell-based, Escherichia coli; settings: cation-adjusted Mueller-Hinton Broth, microdilution, quinolone-sensitive strain; for MIC: Escherichia coli, ATCC25922, read-out: MIC for E. coli ATCC25922
Summary of the method: as §1

[2] = alkaline phosphatase 2 i.U./mL, read-out: MIC for E. coli A-1261 In the presence of an alkaline phosphatase (2 i.U./mL)
[3] = esterase 10 i.U./mL, read-out: MIC for E. coli A-1261 In the presence of an esterase (10 i.U./mL)
[4] = no alkaline phosphatase or esterase, read-out: MIC for E. coli A-1261 In the absence of alkaline phosphatase or esterase

Row | SMILES | MIC (wild-type E. coli A-1261; [2]) [µg/mL] | MIC (wild-type E. coli A-1261; [3]) [µg/mL] | MIC (wild-type E. coli A-1261; [4]) [µg/mL] | MIC (K. pneumoniae A-651) [µg/mL] | MIC [1] [µg/mL] | MIC (P. aeruginosa ATCC27853) [µg/mL] | MIC (E. coli ATCC25922) [µg/mL] | MIC for K. Pneumoniae A-651 (K. pneumoniae A-651) [mg/L] | MIC for A. Baumannii T6474 [1] [mg/L] | MIC for P. aeruginosa ATCC27853 (P. aeruginosa ATCC27853) [mg/L] | MIC for E. coli ATCC25922 (E. coli ATCC25922)
1 | CN(C)CC(=O)OCC1(c2ccc(C#Cc3ccc4nn(CC[C@](C)(C(=O)NO)S(C)(=O)=O)cc4c3)cc2)CC1.Cl [Example 63, (R)-(1-(4-((2-(4-(hydroxyamino)-3-methyl-3-(methylsulfonyl)-4-oxobutyl)-2H-indazol-5-yl)ethynyl)phenyl)cyclopropyl)methyl dimethylglycinate hydrochloride] | 0.5 | 0.063 | 0.25 | 4 | 8 | 8 | 2 | – | – | – | –
2 | CC(C)(O)c1ccc(C#Cc2ccc3nn(CC[C@](C)(C(=O)NO)S(C)(=O)=O)cc3c2F)cc1 [Example 14, (R)-4-(4-fluoro-5-((4-(2-hydroxypropan-2-yl)phenyl)ethynyl)-2H-indazol-2-yl)-N-hydroxy-2-methyl-2-(methylsulfonyl)butanamide] | – | – | – | 0.25 (≈ 0.513 µM) | 16 (≈ 32.8 µM) | 2 (≈ 4.1 µM) | 0.25 (≈ 0.513 µM) | – | – | – | –
3 | COc1ccc(-c2ccc3nn(CC[C@](C)(C(=O)NO)S(C)(=O)=O)cc3c2F)cc1 [Example 4, (R)-4-[4-fluoro-5-(4-methoxy-phenyl)-indazol-2-yl]-N-hydroxy-2-methylsulfonyl-2-methyl-butanamide] | – | – | – | 0.5 (≈ 1.15 µM) | 2 (≈ 4.59 µM) | 4 (≈ 9.19 µM) | 0.125 (≈ 0.287 µM) | – | – | – | –
4 | C[C@@](CCn1cc2c(F)c(C#Cc3ccc(C4(O)COC4)cc3)ccc2n1)(C(=O)NO)S(C)(=O)=O [Example 29, (R)-4-{4-fluoro-5-[4-(3-hydroxy-oxetan-3-yl)-phenylethynyl]-indazol-2-yl}-N-hydroxy-2-methylsulfonyl-2-methyl-butanamide] | – | – | – | 0.25 (≈ 0.498 µM) | 0.5 (≈ 0.997 µM) | 1 (≈ 1.99 µM) | 0.25 (≈ 0.498 µM) | – | – | – | –
5 | C[C@@](CCn1cc2cc(-c3ccc(OCCO)cc3F)ccc2n1)(C(=O)NO)S(C)(=O)=O [Example 50, (R)-4-(5-(2-fluoro-4-(2-hydroxyethoxy)phenyl)-2H-indazol-2-yl)-N-hydroxy-2-methyl-2-(methylsulfonyl)butanamide] | – | – | – | 1 (≈ 2.15 µM) | 2 (≈ 4.3 µM) | 2 (≈ 4.3 µM) | 0.5 (≈ 1.07 µM) | – | – | – | –
6 | CC(CCn1cc2cc(-c3ccc(OCCN4CCOCC4)cc3)ccc2n1)(C(=O)NO)S(C)(=O)=O.O=CO (racemic) [RE2, (RS)—N-hydroxy-2-methylsulfonyl-2-methyl-4-{5-[4-(2-morpholin-4-yl-ethoxy)-phenyl]-indazol-2-yl}-butanamide formic acid salt] | – | – | – | 1 | 4 | 4 | 1 | – | – | – | –

Results, then the compound that gave them:

Row | MIC (wild-type E. coli A-1261; [2]) [µg/mL] | MIC (wild-type E. coli A-1261; [3]) [µg/mL] | MIC (wild-type E. coli A-1261; [4]) [µg/mL] | MIC (K. pneumoniae A-651) [µg/mL] | MIC [1] [µg/mL] | MIC (P. aeruginosa ATCC27853) [µg/mL] | MIC (E. coli ATCC25922) [µg/mL] | MIC for K. Pneumoniae A-651 (K. pneumoniae A-651) [mg/L] | MIC for A. Baumannii T6474 [1] [mg/L] | MIC for P. aeruginosa ATCC27853 (P. aeruginosa ATCC27853) [mg/L] | MIC for E. coli ATCC25922 (E. coli ATCC25922) | SMILES
7 | – | – | – | 0.5 (≈ 1.16 µM) | > 32 | 0.5 (≈ 1.16 µM) | 0.25 (≈ 0.582 µM) | – | – | – | – | C[C@@](CCn1cc2cc(C#CC#CC3(CO)CC3)ccc2n1)(C(=O)NO)S(C)(=O)=O [Example 56, (R)—N-hydroxy-4-(5-((1-(hydroxymethyl)cyclopropyl)buta-1,3-diyn-1-yl)-2H-indazol-2-yl)-2-methyl-2-(methylsulfonyl)butanamide]
8 | – | – | – | 8 (≈ 21.1 µM) | 32 (≈ 84.3 µM) | 8 (≈ 21.1 µM) | 4 (≈ 10.5 µM) | – | – | – | – | CC#CCOc1ccc2nn(CCC(C)(C(=O)NO)S(C)(=O)=O)cc2c1 (racemic) [RE4, (RS)-4-(5-but-2-ynyloxy-indazol-2-yl)-N-hydroxy-2-methylsulfonyl-2-methyl-butanamide]
9 | – | – | – | – | – | – | – | 0.125 | 2 | 0.25 | ≦0.063 mg/L | C[C@]1(CO)C[C@@H]1C#CC#Cc1ccc2nn(CC[C@](C)(C(=O)NO)S(C)(=O)=O)cc2c1 [Example 69]
10 | – | – | – | 0.25 (≈ 0.559 µM) | 4 (≈ 8.94 µM) | 0.25 (≈ 0.559 µM) | 0.125 (≈ 0.279 µM) | – | – | – | – | C[C@@](CCn1cc2cc(C#CC#C[C@H]3C[C@]3(F)CO)ccc2n1)(C(=O)NO)S(C)(=O)=O [Example 77, (R)-4-(5-(((1R,2R)-2-fluoro-2-(hydroxymethyl)cyclopropyl)buta-1,3-diyn-1-yl)-2H-indazol-2-yl)-N-hydroxy-2-methyl-2-(methylsulfonyl)butanamide]
11 | – | – | – | 8 (≈ 18.5 µM) | > 32 | 4 (≈ 9.23 µM) | 4 (≈ 9.23 µM) | – | – | – | – | C[C@@](O)(C#CC#Cc1ccc2nn(CC[C@](C)(C(=O)NO)S(C)(=O)=O)cc2c1)CO [Example 46, (R)-4-(5-((R)-5,6-dihydroxy-5-methylhexa-1,3-diyn-1-yl)-2H-indazol-2-yl)-N-hydroxy-2-methyl-2-(methylsulfonyl)butanamide]
12 | – | – | – | 4 (≈ 8.48 µM) | > 32 | 0.5 (≈ 1.06 µM) | 1 (≈ 2.12 µM) | – | – | – | – | C[C@@](CCn1cc2cc(C#CC#CC3CN(C(=O)CN)C3)ccc2n1)(C(=O)NO)S(C)(=O)=O [Example 84, (R)-4-(5-((1-glycylazetidin-3-yl)buta-1,3-diyn-1-yl)-2H-indazol-2-yl)-N-hydroxy-2-methyl-2-(methylsulfonyl)butanamide]
13 | 1 | > 16 | > 16 | – | – | – | – | – | – | – | – | C[C@@](CCn1cc2cc(C#Cc3ccc(C4(COP(=O)(O)O)CC4)cc3)ccc2n1)(C(=O)NO)S(C)(=O)=O [Example 62, (R)-(1-(4-((2-(4-(hydroxyamino)-3-methyl-3-(methylsulfonyl)-4-oxobutyl)-2H-indazol-5-yl)ethynyl)phenyl)cyclopropyl)methyl dihydrogen phosphate]
